# Measured values from patent publication US4933332A, “11-desoxy-17-α-hydroxycorticosterone derivatives” (priority 1988, dated 1990).
# “And” between values parts separate entries of the source, which are not always exact repeats. Identical values can stand only once.
# Assays:
# [1] = test system: DNA of normal (spleen) cells; assay: Regeneration of injured DNA in normal tissue vs tumor tissue; conditions: compared with tumor tissue
# [2] = biological target: T1, cytoplasmatic receptors of glucocorticoids (Homo sapiens, UniProt P04150); assay: Interaction with cytoplasmatic receptors of glucocorticoids; type: binding
# T1 construct: cytoplasmatic receptors of glucocorticoids
# T1 sequence (P04150 whole entry): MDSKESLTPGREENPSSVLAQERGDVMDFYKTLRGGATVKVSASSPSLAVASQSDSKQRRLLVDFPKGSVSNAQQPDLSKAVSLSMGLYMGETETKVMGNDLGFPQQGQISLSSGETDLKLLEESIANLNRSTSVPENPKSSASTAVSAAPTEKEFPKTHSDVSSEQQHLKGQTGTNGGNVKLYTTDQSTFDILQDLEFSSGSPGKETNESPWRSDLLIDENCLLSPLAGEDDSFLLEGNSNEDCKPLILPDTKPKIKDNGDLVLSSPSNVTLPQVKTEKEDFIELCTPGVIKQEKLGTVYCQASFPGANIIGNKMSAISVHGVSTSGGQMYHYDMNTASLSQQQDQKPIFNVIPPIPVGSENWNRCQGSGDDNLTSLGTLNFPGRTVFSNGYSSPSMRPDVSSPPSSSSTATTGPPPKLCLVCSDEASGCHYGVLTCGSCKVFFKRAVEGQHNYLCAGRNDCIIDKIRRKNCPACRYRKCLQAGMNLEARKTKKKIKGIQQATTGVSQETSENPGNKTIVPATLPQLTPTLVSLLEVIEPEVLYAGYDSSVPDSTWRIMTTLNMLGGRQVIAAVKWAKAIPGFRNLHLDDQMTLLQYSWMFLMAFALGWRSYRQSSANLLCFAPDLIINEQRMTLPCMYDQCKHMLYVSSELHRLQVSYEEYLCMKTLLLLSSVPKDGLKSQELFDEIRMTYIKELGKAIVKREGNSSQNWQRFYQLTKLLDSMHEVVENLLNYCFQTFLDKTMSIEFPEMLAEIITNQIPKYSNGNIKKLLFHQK
# Excerpt: (§1) The hormonal effect of 11-desoxy-17α-hydroxy-21-[p-di-(2-chloroethyl)aminophenylacetate] corticosterone is associated with exhibition of a glucocorticoidal activity thereby.
# [3] = test system: receptors of glucocorticoids in grafted tumors of animals (RL-67, G-60, G-61, G-22c, Ca-755, S-37, AKATOL, AKATON); assay: Inhibition of specific combining of [^3 H]-dexamethazone in grafted tumors of animals; type: binding
# Excerpt: The inhibition, thereby, of a specific combining of [^3 H]-dexamethazone in tumors of animals reaches 70-100%. 11-Desoxy-17-α-hydroxy-21-[p-di(2-chloroethyl)aminophenylacetate] corticosterone also reacts with cytoplasmatic receptors of glucocorticoids in tumors in human beings.
# mice = conditions: mouse, in vivo
# [4] = test system: Lung adenocarcinoma RL-67; assay: Duration of the antitumor effect, lung adenocarcinoma RL-67; type: in vivo, mice and rats
# Excerpt: (§2) For the study of the antitumor activity of the compounds according to the present invention use was made of regrafted hemoblastoses, grafted solid tumors, induced and spontaneous tumors of mice and rats. The following models were used: L 1210, P-388, hemocytoblastosis La, MOPC-406, viral lympholeukosis Mazurenko LMC-1, Ca-755, mammary carcinoma metastasizing into lungs KML, alveolar mammary cancer RMK-1, small intenstine adenocarcinoma AKATON, large intestine adenocarcinoma AKATOL, Lewis lung carcinoma LL, lung adenocarcinoma RL-67, hepatomae G-22c, G-60, G-61, sarcomae S-37 and S-180, DMBA (dimethylbenzanthracene)-induced and spontaneous mammary tumors, and […] (dimethylhydrazine)-induced tumors of the large intestine.
# (§3) The studies were carried out on line mice and their first-generation hybrids, as well as on mongrel mice and rats.
# (§4) The compounds were administered to the animals hypodermally in kernel oil. For the purpose of comparison, a known hormonocytostatic estracyte (estra-1,3,5-(10)treine-3,17β-diol-3N-[bis-(2-chloroethyl)carbamate-17-sodium phosphate] was used which was administered hypodermally in a solution of a 0.9% NaCl, chlorphenacyl and chloroambucyl which were administered intraperitoneally in a 10% solution of ethanol, sarcolysine (β-[p-di(2-chloroethyl)aminophenyl]-α-alanine hydrochloride)--intraperitoneally in a 0.9% solution of NaCl, prednisolone (pregnadiene-1,4-triol-11β,17α,21-dione-3,20)--per os in a starch size.
# (§5) Criteria of the antitumor activity of the compounds according to the present invention are: extension of the lifespan of the animals (ELA, %) and tumor growth inhibition (TGI, %). [formula] T--average lifespan of the treated animals; C--average lifespan of the control animals. [formula] O--average tumor volume in the group of treated animals; K--average tumor volume in the group of control animals.
# MOPG-406 = assay: Antitumor effect on grafted hemoblastoses (MOPC-406), extension of lifespan; type: in vivo, mice and rats; conditions: in vivo
# [5] = test system: acceptor regions of chromatin of tumoral and normal cells (kidney tumor PA, normal kidney); assay: Penetration into the cell nucleus and interaction with chromatin; set-up: species or system line Wistar; conditions: kidney tumor PA of rats
# animals = assay: Estral response in animals; conditions: in vivo
# Excerpt: as §1
# S-37 = assay: Antitumor effect on grafted solid tumor S-37; type: in vivo, mice and rats; conditions: in vivo
# in vivo = conditions: mouse
# Hepatoma G-60 = assay: Antitumor effect on grafted hepatoma G-60; type: in vivo, mice and rats; conditions: in vivo
# S-180 = test system: S-180; set-up: species or system mice and rats; conditions: in vivo
# [6] = Toxicological study, limiting toxicity
# Ca-755 = assay: Antitumor effect on grafted solid tumor Ca-755; type: in vivo, mice and rats; conditions: in vivo
# Lewis lung carcinoma LL = assay: Antitumor effect on grafted Lewis lung carcinoma LL; type: in vivo, mice and rats; conditions: in vivo
# [7] = test system: DNA of sarcoma S-37 cells; assay: Cross-linking and ruptures in DNA of tumoral cells (alkaline saccharose gradient sedimentation)
# [8] = test system: Alveolar mammary cancer RMK-1; assay: Antitumor effect on grafted alveolar mammary cancer RMK-1; type: in vivo, mice and rats; conditions: in vivo
# Hepatoma G-61 = assay: Antitumor effect on grafted hepatoma G-61; type: in vivo, mice and rats; conditions: in vivo
# La = test system: La; set-up: species or system mice and rats; conditions: in vivo
# P-388 = assay: Antitumor effect on grafted hemoblastoses (P-388), extension of lifespan; type: in vivo, mice and rats; conditions: in vivo
# [9] = test system: adrenalectomized rat youngsters; assay: Lifespan of adrenalectomized rat youngsters (biological test for the glucocorticoidal activity); type: in vivo; conditions: 25-days adrenalectomized rats
# Hepatoma G-22c = assay: Antitumor effect on grafted hepatoma G-22c; type: in vivo, mice and rats; conditions: in vivo
# L 1210 = assay: Antitumor effect on grafted hemoblastoses (L 1210), extension of lifespan; type: in vivo, mice and rats; conditions: in vivo, sc
# [10] = test system: Viral leukosis Mazurenko LMC-1; assay: Antitumor effect on grafted hemoblastoses (LMC-1), extension of lifespan; type: in vivo, mice and rats; conditions: in vivo
# [11] = test system: grafted hemoblastoses and solid tumors; assay: Antitumor activity, summary over the tumor models; type: in vivo, mice and rats
# Excerpt: as §2, §3, §4, §5
smiles,measurement,setting,value
C[C@]12CCC(=O)C=C1CC[C@@H]1[C@@H]2CC[C@@]2(C)[C@H]1CC[C@]2(O)C(=O)COC(=O)Cc1ccc(N(CCCl)CCCl)cc1 [11-desoxy-17α-hydroxy-21-[p-di(2-chloroethyl)-aminophenylacetate] corticosterone],regeneration of injured DNA in normal tissue,[1],starts earlier than in the tumor tissue
same,Kd,[2],0.095 µM
same,interaction with cytoplasmatic receptors of glucocorticoids,[2]; [^3 H]-dexamethazone,interacts with cytoplasmatic receptors of glucocorticoids and inhibits combining of [^3 H]-dexamethazone therewith
same,reaction with receptors of glucocorticoids in grafted tumors,"[3]; RL-67, G-60, G-61, G-22c, Ca-755, S-37, AKATOL, AKATON",reacts with receptors of glucocorticoids in grafted tumors of animals
same,inhibition of specific combining of [^3 H]-dexamethazone,[3]; tumors of animals,70-100%
same,toxicity lower than that of chlorophenacyl,mice,3 times
same,Extension of the lifespan,"[4]; 45 mg/kg × 1, day 2",27%
same,Tumor growth inhibition,"[4]; 45 mg/kg × 1, day 2, day 15 of experiment",81%
same,Tumor growth inhibition,"[4]; 45 mg/kg × 1, day 2, day 22 of experiment",82%
same,Tumor growth inhibition,"[4]; 45 mg/kg × 1, day 2, day 29 of experiment",80%
same,Extension of the lifespan of the animals (ELA),MOPG-406,76%
same,penetration into cell nucleus and interaction with chromatin,[5],penetrates into the cell nucleus and interacts with acceptor regions of chromatin of both tumoral and normal cells
same,estral response,animals,short-time estral response
same,Extension of the lifespan,S-37,42%
same,Maximum tumor growth inhibition,S-37,99%
same,Tumor growth inhibition,S-37,99% and 94% and 91%
same,recovery,S-37,28%
same,Maximum tumor growth inhibition,S-37; 45 mg/kg,99%
same,LD50,in vivo,80 mg/kg
same,MTD,in vivo,44 mg/kg
same,Maximum tumor growth inhibition,Hepatoma G-60,99%
same,Maximum tumor growth inhibition,S-180,93% and 92%
same,limiting toxicity,[6]; degree depends on the dose,"gastroenteral and neurotoxicity (diarrhea, vomition, convulsions)"
same,hematotoxicity,"[6]; mouse, in vivo",does not restrict the administration
same,Extension of the lifespan,Ca-755,73%
same,Maximum tumor growth inhibition,Ca-755,99%
same,Tumor growth inhibition,Ca-755,92% and 73% and 82%
same,Maximum tumor growth inhibition,Ca-755; 45 mg/kg,94%
same,Maximum tumor growth inhibition,Lewis lung carcinoma LL,81%
same,Extension of the lifespan,Lewis lung carcinoma LL; 15 mg/kg,38%
same,Tumor growth inhibition,Lewis lung carcinoma LL; 15 mg/kg,76% and 56% and 39%
same,Maximum tumor growth inhibition,Lewis lung carcinoma LL; 45 mg/kg,90%
same,number and duration of retention of cross-linking in DNA molecules of S-37 cells,[7],superior to chlorophenacyl
same,Maximum tumor growth inhibition,[8],59%
same,Maximum tumor growth inhibition,Hepatoma G-61,89%
same,Extension of the lifespan of the animals (ELA),La,105%
same,Extension of the lifespan of the animals (ELA),P-388,81%
same,extension of lifespan of adrenalectomized rat youngsters,[9],113%
same,Extension of the lifespan,Hepatoma G-22c,65%
same,Maximum tumor growth inhibition,Hepatoma G-22c,80%
same,Tumor growth inhibition,Hepatoma G-22c,80% and 68% and 57%
same,Extension of the lifespan of the animals (ELA),L 1210,31%
same,Extension of the lifespan of the animals (ELA),[10],344%
same,cure,[10],33%
same,inhibits growth of substantially all tumors,"[11]; Table 2 summary, grafted solid tumors",80-99%
same,duration of tumor growth inhibition after completion of the treatment course,[11]; Table 3 summary,≥ 1 month
same,extension of the lifespan of the animals as compared to the control,[11]; Table 3 summary,27-73%
same,antitumor effect compared with reference agents,[11]; in vivo,"considerably superior, as regards its activity on numerous models, over the known alkylating preparation sarcolysine"
